Publication PMC5323086, “Ionization Constants of the Six Dichloroanilines and the Six Dichlorophenols in Aqueous Solution at 25 °C” (Journal of Research of the National Bureau of Standards. …, 1964)
Where two headings read alike, the source gives them in different places. Each block holds one molecule with its values, some of them ahead of it.

Legend:
[1] = pK calculated from monosubstituted compounds assuming additivity of substituent effects
[2] = cited from earlier work
[3] = aqueous solution at 25°; final value, standard deviation in parentheses; 2,6-compound: limiting value at CHCl=0
[4] = pK values quoted from the literature; format: physicochemical; details: Murray and Gordon value raised by 0.22
[5] = pK calculated by the Hammett relation, eq (5) and eq (6)
[6] = pKA calculated from pKP of the corresponding phenol by linear relation eq (8)
[7] = pK (calc.)−pK (obs.), pK (calc.) from monosubstituted compounds

SMILES: Nc1cccc(Cl)c1Cl [2,3-Dichloroaniline]
- ΔpK(1) Dichloroaniline [1, 7]: 0.16

SMILES: Oc1cccc(Cl)c1Cl [2,3-Dichlorophenol]
- ΔpK(1) Dichlorophenol [1]: −0.05

SMILES: Nc1ccc(Cl)cc1Cl [2,4-Dichloroaniline, 2,4-Dichloroaniline]
- ΔpK(1) Dichloroaniline [1, 7]: .01

SMILES: Oc1ccc(Cl)cc1Cl [2,4-Dichlorophenol]
- ΔpK(1) Dichlorophenol [1]: .06

- melting point: 50 to 50.5 °C
SMILES: Nc1cc(Cl)ccc1Cl [2,5-Dichloroaniline]
- pKA ([2]; Gillois and Rumpf): 1.57

SMILES: Oc1cc(Cl)ccc1Cl [2,5-Dichlorophenol]
- ΔpK(1) Dichlorophenol [1]: .15

SMILES: Cc1ccc(C)c(O)c1 [2,5-xylenol]
- pK [2]: 10.40

SMILES: Nc1c(Cl)cccc1Cl [2,6-Dichloroaniline]
- pKa (physchem): 0.482
- pK Dichloroaniline [3]: 0.422
- ΔpK(1) Dichloroaniline [1, 7]: .28

SMILES: Oc1c(Cl)cccc1Cl [2,6-Dichlorophenol]
- pKP adjusted value [4]: 7.01
- ΔpK(1) Dichlorophenol [1]: .27

SMILES: Nc1ccc(Cl)c(Cl)c1 [3,4-Dichloroaniline]
- ΔpK(1) Dichloroaniline [1]: −.07

SMILES: Oc1ccc(Cl)c(Cl)c1 [3,4-Dichlorophenol]
- difference of Hammett-calculated pK from the observed value [5]: 0.08
- ΔpK(1) Dichlorophenol [1]: −.04

SMILES: O=C(O)c1ccc(Cl)c(Cl)c1 [3,4-dichlorobenzoic acid]
- ionization constant (pK) [2]: 3.64

SMILES: Nc1cc(Cl)cc(Cl)c1 [3,5-Dichloroaniline]
- difference of Hammett-calculated pK from the observed value [5]: 0.02
- ΔpK(1) Dichloroaniline [1]: .06

SMILES: Oc1cc(Cl)cc(Cl)c1 [3,5-Dichlorophenol]
- difference of Hammett-calculated pK from the observed value [5]: 0.01
- ΔpK(1) Dichlorophenol [1]: .07

SMILES: O=C(O)c1cc(Cl)cc(Cl)c1 [3,5-dichlorobenzoic acid]
- ionization constant (pK) [2]: 3.43

SMILES: Nc1ccc(Cl)cc1[N+](=O)[O-] [4-chloro-2-nitroaniline]
- discrepancy between observed and predicted pK, eq (8) [6]: 1.03

- discrepancy between observed and predicted pK, eq (8) [6]: 0.17
SMILES: Cc1cc(N)ccc1[N+](=O)[O-] [4-nitro-m-toluidine]
- pK ([2]; Wepster): 1.50
